The source of these data is PubChem BioAssay AID248 (DTP/NCI, 2004).

Where “and” joins values, the source holds several entries; their conditions need not be identical. Equal entries are not always repeated. Toxic doses and inconclusive results are not listed.

The subject of the test is L1210 leukemia ip in BDF1 mice, survival T/C. Kind of test: NCI In Vivo Anticancer Drug Screen. Data for tumor model L1210 Leukemia (intraperitoneal) in B6D2F1 (BDF1) mice. The conditions noted are these: endpoint: mean survival time, higher = longer survival. The essentials: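 Tumor was transplanted into mice, which were then dosed with test compound or vehicle alone. Survival was recorded for each group, and the treated figure was expressed relative to the control figure.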

Where [1] appears, read: dose: 100.0 mg/kg/injection, schedule: Q01DX009 (ip), vehicle: saline with Tween-80.
The mark [2] stands for this setting: dose: 100.0 mg/kg/injection, schedule: Q04DX003 (ip), vehicle: saline with Tween-80.
The mark [3] stands for this setting: dose: 200.0 mg/kg/injection, schedule: Q01DX009 (ip), vehicle: saline with Tween-80.
Where [4] appears, read: dose: 200.0 mg/kg/injection, schedule: Q04DX003 (ip), vehicle: saline with Tween-80.
Where [5] appears, read: dose: 400.0 mg/kg/injection, schedule: Q04DX003 (ip), vehicle: saline with Tween-80.
Where [6] appears, read: dose: 100.0 mg/kg/injection, schedule: Q04DX003 (ip), vehicle: Klucel (hydroxypropylcellulose) (HPC).
Setting [7] is: dose: 200.0 mg/kg/injection, schedule: Q04DX003 (ip), vehicle: Klucel (hydroxypropylcellulose) (HPC).
Setting [8] is: dose: 400.0 mg/kg/injection, schedule: Q04DX003 (ip), vehicle: Klucel (hydroxypropylcellulose) (HPC).
[9] abbreviates: dose: 400.0 mg/kg/injection, schedule: Q01DX009 (ip), vehicle: saline with Tween-80.
Where [10] appears, read: dose: 100.0 mg/kg/injection, schedule: Q01DX009 (ip), vehicle: Klucel (hydroxypropylcellulose) (HPC).
Where [11] appears, read: dose: 50.0 mg/kg/injection, schedule: Q01DX001 (ip), vehicle: saline.
Where [12] appears, read: dose: 100.0 mg/kg/injection, schedule: Q01DX001 (ip), vehicle: saline.
Setting [13] is: dose: 200.0 mg/kg/injection, schedule: Q01DX001 (ip), vehicle: saline.
Setting [14] is: dose: 100.0 mg/kg/injection, schedule: Q04DX002 (ip), vehicle: saline with Tween-80.
Where [15] appears, read: dose: 200.0 mg/kg/injection, schedule: Q04DX002 (ip), vehicle: saline with Tween-80.
Setting [16] is: dose: 400.0 mg/kg/injection, schedule: Q04DX002 (ip), vehicle: saline with Tween-80.
Where [17] appears, read: dose: 200.0 mg/kg/injection, schedule: Q01DX009 (ip), vehicle: Klucel (hydroxypropylcellulose) (HPC).
[18] abbreviates: dose: 400.0 mg/kg/injection, schedule: Q01DX009 (ip), vehicle: Klucel (hydroxypropylcellulose) (HPC).

On to `CC1(c2cccs2)NC(=O)N(Cl)C1=O` (stereo not given), for which the T/C is 93 % of control (dose: 25.0 mg/kg/injection, schedule: Q01DX009 (ip), vehicle: saline with Tween-80); 99 % of control (dose: 25.0 mg/kg/injection, schedule: Q04DX003 (ip), vehicle: saline with Tween-80); 96 % of control (dose: 50.0 mg/kg/injection, schedule: Q01DX009 (ip), vehicle: saline with Tween-80); 99 % of control (dose: 50.0 mg/kg/injection, schedule: Q04DX003 (ip), vehicle: saline with Tween-80); 105 % of control under setting [1]; 100 % of control and 91 % of control under setting [2]. The T/C under setting [3] was 94 % of control.

As for `CC(=O)N1C=C(Br)c2ccccc2C1C1c2ccccc2C(Br)=CN1C(C)=O` (stereo not given), the T/C was 91 % of control under setting [2], 87 % of control under setting [4] and 91 % of control under setting [5].

Regarding `CC(=O)N/N=C(/C)C(=O)O`, the T/C by setting is: (dose: 50.0 mg/kg/injection, schedule: Q01DX009 (ip), vehicle: water) 100 % of control; (dose: 100.0 mg/kg/injection, schedule: Q01DX009 (ip), vehicle: water) 100 % of control; (dose: 100.0 mg/kg/injection, schedule: Q04DX003 (ip), vehicle: water) 97 % of control; (dose: 200.0 mg/kg/injection, schedule: Q04DX003 (ip), vehicle: water) 106 % of control.

In the case of `CCCCOC(=O)c1cccc2c1-c1ccccc1C2=O`, the T/C was 86 % of control (dose: 100.0 mg/kg/injection, schedule: Q01DX001 (ip), vehicle: other); 93 % of control (dose: 200.0 mg/kg/injection, schedule: Q01DX001 (ip), vehicle: other); 91 % of control (dose: 400.0 mg/kg/injection, schedule: Q01DX001 (ip), vehicle: other).

On to `CC(=O)NNc1ccc([N+](=O)[O-])cc1`, for which the T/C is, setting by setting: under setting [6], 89 % of control; under setting [7], 94 % of control; under setting [8], 89 % of control.

`Cc1ccc(CN(C)N=Nc2ccccc2)cc1`: the T/C reads like this: (dose: 100.0 mg/kg/injection, schedule: Q04DX002 (ip), vehicle: Klucel (hydroxypropylcellulose) (HPC)) 91 % of control; (dose: 200.0 mg/kg/injection, schedule: Q04DX002 (ip), vehicle: Klucel (hydroxypropylcellulose) (HPC)) 102 % of control.

For `Cc1ccc([N+](=O)[O-])cc1NC(=O)SCCOC(=O)COc1ccc(Cl)cc1Cl`, the T/C runs as follows: under setting [1], 94 % of control; under setting [2], 93 % of control; under setting [3], 94 % of control; under setting [4], 98 % of control; under setting [9], 105 % of control; under setting [5], 89 % of control.

For `COc1ccc2c(C)cc(C)nc2n1`, the T/C is 104 % of control (dose: 75.0 mg/kg/injection, schedule: Q04DX002 (ip), vehicle: saline); 112 % of control (dose: 150.0 mg/kg/injection, schedule: Q04DX002 (ip), vehicle: saline); 108 % of control (dose: 300.0 mg/kg/injection, schedule: Q04DX002 (ip), vehicle: saline).

With `CCCCC1C(=O)N=C2C=CC=CN2C1=O` (stereo not given), the T/C runs as follows: (dose: 25.0 mg/kg/injection, schedule: Q01DX009 (ip), vehicle: Klucel (hydroxypropylcellulose) (HPC)) 102 % of control; (dose: 50.0 mg/kg/injection, schedule: Q01DX009 (ip), vehicle: Klucel (hydroxypropylcellulose) (HPC)) 100 % of control; under setting [10], 110 % of control; (dose: 100.0 mg/kg/injection, schedule: Q04DX003 (ip), vehicle: other) 104 % of control; (dose: 200.0 mg/kg/injection, schedule: Q04DX003 (ip), vehicle: other) 102 % of control.

For `COC1OCC(OS(C)(=O)=O)C(NC(C)=O)C1OS(C)(=O)=O` (stereo not given), the T/C was 104 % of control (dose: 100.0 mg/kg/injection, schedule: Q01DX001 (ip), vehicle: carboxymethylcellulose (CMC)); 100 % of control (dose: 177.0 mg/kg/injection, schedule: Q01DX001 (ip), vehicle: carboxymethylcellulose (CMC)); 98 % of control (dose: 200.0 mg/kg/injection, schedule: Q01DX001 (ip), vehicle: carboxymethylcellulose (CMC)); 94 % of control and 108 % of control (dose: 266.0 mg/kg/injection, schedule: Q01DX001 (ip), vehicle: carboxymethylcellulose (CMC)); 94 % of control and 103 % of control (dose: 400.0 mg/kg/injection, schedule: Q01DX001 (ip), vehicle: carboxymethylcellulose (CMC)); 97 % of control (dose: 600.0 mg/kg/injection, schedule: Q01DX001 (ip), vehicle: carboxymethylcellulose (CMC)).

As to `O=c1[nH]c(C(F)(F)F)nc2[nH]ncc12`, the T/C by setting is: (dose: 29.0 mg/kg/injection, schedule: Q01DX Z (ip), vehicle: methylcellulose (MC)) 102 % of control; (dose: 45.0 mg/kg/injection, schedule: Q01DX Z (ip), vehicle: methylcellulose (MC)) 106 % of control; (dose: 67.0 mg/kg/injection, schedule: Q01DX Z (ip), vehicle: methylcellulose (MC)) 108 % of control; (dose: 100.0 mg/kg/injection, schedule: Q01DX Z (ip), vehicle: methylcellulose (MC)) 93 % of control.

With `O=c1[nH]c2cnn(-c3ccccc3)c2c(=O)n1O`, the T/C is 97 % of control under setting [11]; 97 % of control under setting [12]; 97 % of control under setting [13]; 105 % of control (dose: 400.0 mg/kg/injection, schedule: Q01DX001 (ip), vehicle: saline).

In the case of `N#CC[CH2][Sn]([CH2]CC#N)([CH2]CC#N)[CH2]CC#N`, the T/C was 100 % of control under setting [14], 96 % of control under setting [15] and 96 % of control under setting [16].

For the compound `CCSC(SCC)C(OC(C)=O)C(OC(C)=O)C(OC(C)=O)C(C)OC(C)=O` (stereo not given), the T/C is, setting by setting: (dose: 100.0 mg/kg/injection, schedule: Q01DX001 (ip), vehicle: saline with Tween-80) 99 % of control; under setting [1], 95 % of control and 89 % of control; under setting [14], 93 % of control and 105 % of control; under setting [2], 107 % of control; (dose: 200.0 mg/kg/injection, schedule: Q01DX001 (ip), vehicle: saline with Tween-80) 103 % of control; under setting [3], 98 % of control and 100 % of control. In addition, the T/C under setting [15] was 94 % of control and 92 % of control; the T/C under setting [4] was 91 % of control; the T/C (dose: 400.0 mg/kg/injection, schedule: Q01DX001 (ip), vehicle: saline with Tween-80) is 101 % of control; the T/C under setting [9] is 87 % of control and 88 % of control; the T/C under setting [16] was 100 % of control and 87 % of control; the T/C under setting [5] was 93 % of control.

Take `Cn1c(=O)c2[nH]c(C3CC4C=CC3C4)nc2n(C)c1=O` (stereo not given): the T/C is, setting by setting: under setting [11], 93 % of control; under setting [12], 104 % of control; under setting [13], 98 % of control.

`CCN(CC)CCOc1ccccc1C`: the T/C is, setting by setting: (dose: 20.0 mg/kg/injection, schedule: Q01DX009 (ip), vehicle: saline) 90 % of control; (dose: 40.0 mg/kg/injection, schedule: Q01DX009 (ip), vehicle: saline) 88 % of control; (dose: 40.0 mg/kg/injection, schedule: Q04DX003 (ip), vehicle: saline) 106 % of control; (dose: 80.0 mg/kg/injection, schedule: Q01DX009 (ip), vehicle: saline) 89 % of control; (dose: 80.0 mg/kg/injection, schedule: Q04DX003 (ip), vehicle: saline) 100 % of control.

`CNC(=O)Oc1c(C)cccc1C`: the T/C is, setting by setting: under setting [14], 103 % of control; under setting [15], 106 % of control; under setting [16], 95 % of control.

For the compound `C#CC(O)C1OC2OC(C)(C)OC2C1O` (stereo not given), the T/C is 173 % of control under setting [10]; 101 % of control under setting [6]; 97 % of control under setting [17]; 101 % of control under setting [7]; 96 % of control under setting [18]; 113 % of control under setting [8].

As to `COc1ccc(Cl)cc1NC(=O)c1cccc(Cl)c1`, the T/C is, setting by setting: under setting [10], 110 % of control; under setting [17], 110 % of control; under setting [18], 104 % of control.
